Measurements taken from patent publication US20240293551A1, “USE OF ST-TYPE LIPID COMPOUNDS IN PREPARATION OF NUCLEIC ACID DELIVERY REAGENT AND RELATED PRODUCT” (INSTITUTE OF BASIC MEDICAL SCIENCES CHINESE ACADEMY OF …, priority 2021, published 2024).

System: PGY-sRNA-26
Assay: In vivo delivery study of lipid-nucleic acid mixture (oral gavage, RT-qPCR of PGY-sRNA-26 in tissues)
Set-up: species or system mouse
Conditions: for delivery efficacy over each tissue and blood tested (broad-spectrum delivery): all tissues and blood tested; for oral delivery of single-stranded sRNA nucleic acids into mouse intestinal tissue: intestine
How it was run: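 C57BL/6 male mice (~6 weeks, 20-24 g), fasted 12 h, were gavaged with 10 nmol 3′-methylated PGY-sRNA-26 mixed with 100 μg lipid (heated 90° C. 15 min), versus saline or free sRNA (n=4 each). After 12 h, blood and tissues were Trizol-extracted; sRNA quantified by stem-loop RT-qPCR relative to U6.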

[1] = C57BL/6 mice, gavage, 100 μg lipid: 10 nmol PGY-sRNA-26, 12 hours
[2] = C57BL/6 mice, gavage, 100 μg lipid: 10 nmol PGY-sRNA-26, 12 hours, blood
[3] = C57BL/6 mice, gavage, 100 μg lipid: 10 nmol PGY-sRNA-26, 12 hours, femur

SMILES	delivery efficacy over each tissue and blood tested (broad-spectrum delivery) [1]	oral delivery of single-stranded sRNA nucleic acids into mouse blood [2]	oral delivery of single-stranded sRNA nucleic acids into mouse brain tissue [1]	oral delivery of single-stranded sRNA nucleic acids into mouse femur [3]	oral delivery of single-stranded sRNA nucleic acids into mouse heart tissue [1]	oral delivery of single-stranded sRNA nucleic acids into mouse intestinal tissue [1]	oral delivery of single-stranded sRNA nucleic acids into mouse kidney tissue [1]	oral delivery of single-stranded sRNA nucleic acids into mouse liver tissue [1]	oral delivery of single-stranded sRNA nucleic acids into mouse lung tissue [1]	oral delivery of single-stranded sRNA nucleic acids into mouse spleen tissue [1]	oral delivery of single-stranded sRNA nucleic acids into mouse stomach tissue [1]	oral delivery of single-stranded sRNA nucleic acids into mouse blood (mouse, in vivo, po)	oral delivery of single-stranded sRNA nucleic acids into mouse femur (mouse, in vivo, po)
CCC(=O)O[C@H]1CC[C@H]2[C@@H]3CCC4=CC(=O)CC[C@]4(C)[C@H]3CC[C@]12C [Lipid 568]	exhibited the best delivery efficacy	can effectively orally deliver	can effectively orally deliver	can effectively orally deliver	can effectively orally deliver	can effectively orally deliver	can effectively orally deliver	can effectively orally deliver	can effectively orally deliver	can effectively orally deliver	can effectively orally deliver	–	–
C=C1/C(=C\C=C2/CCC[C@]3(C)[C@@H]([C@H](C)/C=C/[C@H](C)C(C)C)CC[C@@H]23)C[C@@H](O)C[C@@H]1O [Lipid 569]	exhibited the best delivery efficacy	can effectively orally deliver	can effectively orally deliver	can effectively orally deliver	can effectively orally deliver	can effectively orally deliver	can effectively orally deliver	can effectively orally deliver	can effectively orally deliver	can effectively orally deliver	can effectively orally deliver	–	–
C=C1/C(=C\C=C2/CCC[C@]3(C)[C@@H]([C@H](C)/C=C/[C@H](C)C(C)(C)O)CC[C@@H]23)C[C@@H](O)C[C@@H]1O [Lipid 570]	exhibited the best delivery efficacy	can effectively orally deliver	can effectively orally deliver	can effectively orally deliver	can effectively orally deliver	can effectively orally deliver	can effectively orally deliver	can effectively orally deliver	can effectively orally deliver	can effectively orally deliver	can effectively orally deliver	–	–
C=C1CC[C@H](O)C/C1=C/C=C1\CCC[C@]2(C)[C@@H]([C@H](C)CCCC(C)(C)O)CC[C@@H]12 [Lipid 571]	–	can effectively orally deliver	can effectively orally deliver	can effectively orally deliver	can effectively orally deliver	can effectively orally deliver	can effectively orally deliver	can effectively orally deliver	can effectively orally deliver	can effectively orally deliver	can effectively orally deliver	–	–
CC(=O)[C@H]1CC[C@H]2[C@@H]3CCC4=CC(=O)CC[C@]4(C)[C@H]3CC[C@]12C [Lipid 575]	exhibited the best delivery efficacy	can effectively orally deliver	can effectively orally deliver	can effectively orally deliver	can effectively orally deliver	can effectively orally deliver	can effectively orally deliver	can effectively orally deliver	can effectively orally deliver	can effectively orally deliver	can effectively orally deliver	–	–
C[C@H](CCC(=O)O)[C@H]1CC[C@H]2[C@@H]3CC[C@@H]4C[C@H](O)CC[C@]4(C)[C@H]3CC[C@]12C [Lipid 577]	–	can effectively orally deliver	can effectively orally deliver	can effectively orally deliver	can effectively orally deliver	can effectively orally deliver	can effectively orally deliver	can effectively orally deliver	can effectively orally deliver	–	can effectively orally deliver	–	–
C[C@]12CC[C@H]3[C@@H](CCC4=CC(=O)CC[C@@]43C)[C@@H]1CC[C@@H]2O [Lipid 579]	–	–	–	–	–	–	–	–	–	–	–	can effectively orally deliver	can effectively orally deliver
C[C@H](CCC(=O)O)[C@H]1CC[C@H]2[C@@H]3[C@H](O)C[C@@H]4C[C@H](O)CC[C@]4(C)[C@H]3CC[C@]12C [Lipid 580]	–	can effectively orally deliver	can effectively orally deliver	can effectively orally deliver	can effectively orally deliver	can effectively orally deliver	–	can effectively orally deliver	can effectively orally deliver	can effectively orally deliver	can effectively orally deliver	–	–
C[C@H](CCC(=O)O)[C@H]1CC[C@H]2[C@@H]3CC[C@@H]4C[C@H](O)CC[C@]4(C)[C@H]3C[C@H](O)[C@]12C [Lipid 581]	exhibited the best delivery efficacy	can effectively orally deliver	can effectively orally deliver	can effectively orally deliver	can effectively orally deliver	can effectively orally deliver	can effectively orally deliver	can effectively orally deliver	can effectively orally deliver	can effectively orally deliver	can effectively orally deliver	–	–
CC(=O)OCC(=O)[C@@]1(O)CC[C@H]2[C@@H]3CCC4=CC(=O)CC[C@]4(C)[C@H]3[C@@H](O)C[C@@]21C [Lipid 582]	exhibited the best delivery efficacy	can effectively orally deliver	can effectively orally deliver	can effectively orally deliver	can effectively orally deliver	can effectively orally deliver	can effectively orally deliver	can effectively orally deliver	can effectively orally deliver	can effectively orally deliver	can effectively orally deliver	–	–
